Each structure is given as a SMILES string.

The nature of the data set: Stability in solution / on storage. The note with it: in solution / ambient conditions.

Regarding `C1=Cc2cc3ccc([nH]3)c3ccc(cc4ccc(cc1n2)[nH]4)[nH]3` [H3(cor)], the stability result was “stability was limited due to ambient humidity and light conditions”.

For the origin of these results see patent US20240083920A1, “LOW MOLECULAR WEIGHT CORROLE COMPOSITIONS” (TECHNION RESEARCH & DEVELOPMENT FOUNDATION LTD, priority 2021, published 2024).
